In US9670217B2, “Process for preparing chlorins and their pharmaceutical uses” (UNIVERSIDADE DE COIMBRA, priority 2008, dated 2017):
Like-named read-outs stand apart in the source and are kept apart here.

Key:
[1] = in toluene [12]; cited from earlier work
[2] = cited from earlier work
[3] = Photobleaching under 748 nm diode laser irradiation; type: physicochemical; conditions: 100 mW laser irradiation at 748 nm
Source text: The irradiation of bacteriochlorins in the photobleaching experiments employed the 748 nm Lynx diode laser. For animal studies we employed a costumer-made Hamamatsu diode laser, type LA0873. S/N M070301, which delivered 140 mW at 748 nm. This diode laser was controlled by a ThorLabs 500 mA ACC/APC Laser Diode Controller and in-house electronics. The laser energies of this and the other higher-energy lasers employed in this work were regularly checked with an Ophir model AN/2E laser power meter.
Photobleaching experiments were conducted in PBS. PBS:methanol (50:50) and methanol solutions. The solutions were irradiated in a cuvette with an optical path of 1 cm and the Lynx diode laser. The initial absorption of the solutions was ca. 0.8. The mechanism of photobleaching was assessed with the irradiation of the sensitizer using the Hamamatsu diode laser at 80 mW. The sensitizer was irradiated in PBS and in the presence of ascorbic acid or azide.
The chemical stability of the compounds was studied exposing them to light, air, and pH changes. The most significant degradation occurs for aerated solutions irradiated by light of the appropriate wavelength. In such circumstances the photobleaching of the compounds follows a first-order rate and is proportional to the energy of the incident laser light. In general, it was also observed that the photobleaching rate increases with the amount of water present in the solution. Bennett reported the photoconversion of Foscan® (m-THPC) and of the analogous bacteriochlorin (m-THPB) in PBS:methanol (50:50). Scherz reported the photoconversion of Tookad® in acetone and Triton-X:PBS [3]. For the purpose of comparing the photostability of Luzitins with that of Foscan® and Tookad®, we present in Table 2 the half-lives (t1/2) of representative drugs described herein, together with those of Foscan and Tookad® normalized for a laser power of 100 mW.
Luzitin-FMet was dissolved in PBS:methanol (2:3), transferred to a 1 cm quartz cell and its absorption spectrum was registered, FIG. 6. The quartz cell was then placed in the beam of the 748 nm Lynx diode laser, previously unfocused to have a beam diameter coincident with the window of the quartz cell. The laser power measured under these conditions was 28.8 mW. Every 5 minutes the irradiation was interrupted and a new absorption spectrum was registered. This procedure was followed for 65 minutes. The photobleaching follows the kinetics of a first-order reaction in the time window of the experiment. […] Whereas the bacteriochlorin peak at 743 nm is reduced from an absorbance of 1.128 to 0.337, the absorption of the chlorin only increases from 0.114 to 0.151. Taking into consideration the molar absorption coefficients of the compounds at these wavelengths, it is clear that whereas 70% of the bacteriochlorin is destroyed during the irradiation, only a few percent of chlorin are formed.
The half-lives of other bacteriochlorins normalized 100 mW laser irradiation at 748 nm are presented in […], together with the literature data for the photodegradation of Foscan® and Tookad® normalized for the same light intensity. It was also observed that the half-live to Luzitin-Cl is increased by a factor of 30 when the PBS solution of the photosensitizer is saturated with Argon, which reduces the oxygen concentration in the solution.

[4] = Triplet lifetime by laser flash photolysis; type: physicochemical; conditions: air-saturated ethanol
Description: (§1) Absorption spectra were recorded on a Shimadzu UV-2100 spectrophotometer or with a Carry 50 Biospectrophotometer (Varian, Mulgrave, USA). Fluorescence spectra were measured with a Spex Fluorolog 3 spectrophotometer, with correction for the wavelength dependence system (RCA C31034 photomultiplier), or with a PerkinElmer LS 50 spectrofluorimeter. Transient absorption spectra were measured with an Applied Photophysics LKS 60 nanosecond laser flash photolysis kinetic spectrometer, using the third harmonic of a Spectra-Physics Quanta Ray GCR 130-01 Nd/YAG laser for excitation, a Hamamatsu 1P28 photomultiplier and a Hewlett-Packard Infinium oscilloscope (1 GS/s). Flash photolysis measurements were made in the presence of air and in argon saturated solutions. Photoacoustic calorimetry employed the same Nd/YAG laser, a home-made front-face photoacoustic cell with a 2.25 MHz Panametrics transducer (model 5676) and a Tektronix DSA 601 transient recorder. Room-temperature singlet-oxygen phosphorescence was measured at 1270 nm with a Hamamatsu R5509-42 photomultiplier, cooled to 193 K in a liquid nitrogen chamber (Products for Research model PC176TSCE005), following laser excitation of aerated solutions at 355 nm, using an adapted Applied Photophysics spectrometer. Singlet oxygen emission at 1270 nm was also monitored with a liquid nitrogen-cooled germanium detector (North Coast) coupled to a Tectronix Digitizing scope (TDS 520B), following sample excitation with 5 ns laser pulses of the third harmonic (355 nm) generated by a Q-switched Nd:YAG laser (Continuum Surelite II).
The triplet-triplet absorption spectra and the triplet lifetimes of the photosensitisers (τT) were measured with the transient absorption spectra equipment described above, with excitation at 355 nm, where the solutions had absorbances between 0.25 and 0.30.
The triplet-triplet absorption spectra of the Luzitins measured in this work were in good agreement with that in the literature data for chlorins and bacteriochlorins. All triplet decays were clearly mono-exponential. […] Such values are consistent with diffusion limited energy transfer from the triplet state of the sensitizer to molecular oxygen through a charge-transfer interaction.

[5] = Fluorescence quantum yield; type: physicochemical; conditions: ethanol
Description: The absorptions of both reference and sample solutions were matched at ca 0.2 at the excitation wavelength of 515.5 nm, and the solutions were diluted by a factor 10 before collecting the fluorescence. The fluorescence quantum yield was obtained from the ratio of the fluorescence bands of the sample vs the reference, multiplied by the fluorescence quantum yield of the reference, 0.012 according to [12], after correction for the difference of refractive indexes of ethanol and toluene.
(§2) This is indicative of little aggregation between the molecules, which exist mostly as monomers at these concentrations in the solvents studied. Table 1 presents typical red and infrared molar absorption coefficients (εmax) and wavelength maxima. The same table also presents representative fluorescence quantum yields (ΦF) of Luzitins. The fluorescence quantum yields decrease of these molecules decrease in the presence of chlorine substituents, a fingerprint of the heavy atom effect expected for such molecules.

[6] = Singlet oxygen quantum yield and lifetime (1270 nm phosphorescence); type: physicochemical; conditions: air-saturated ethanol
Description: as §1
Singlet oxygen quantum yields in ethanol were obtained using a procedure described by some of us, using phenalenone as reference. The literature value for the singlet oxygen quantum yield obtained with phenalenone in ethanol is ΦΔ=0.95 [38].
All the singlet oxygen emissions measured in aerated ethanol solutions are very well described by mono-exponential decays, with typical singlet oxygen lifetimes (τΔ). The ΦΔ values of Table 1 were obtained by the procedures described above and are representative of these photosensitisers.
An air-saturated solution of Luzitin-Cl2Hep in ethanol with an absorbance ca. 0.2 at 355 nm was excited in a 1 cm quartz cuvette by a pulsed Nd:YAG laser, and the singlet oxygen emission was followed at 1270 nm, using the equipment and methods previously described. The intensity of the singlet oxygen phosphorescence was studied as a function of the laser intensity. A similar study was made with phenalenone in ethanol, at a concentration matching the absorbance of Luzitin-Cl2Hep at 355 nm. […] Various laser energies were employed and from the slopes of the energy dependence of singlet oxygen emission and the value of ΦΔ=0.95 for phenalenone in this ethanol, we obtained ΦΔ=0.78 for Luzitin-Cl2Hep.

[7] = Absorption spectra (λmax, molar absorption coefficient); type: physicochemical; conditions: ethanol solutions
Description: as §1, §2

[8] = n-octanol:water partition coefficient (shake-flask); type: physicochemical
Description: The n-octanol:water partition coefficients (CP) were measured using a minor modification of the shake-flask method described by some of us in the literature. The modification concerned the excitation of the absorption band ca 500 nm and the collection of the fluorescence in the red/IR region.

[9] = test system: human adenocarcinoma (HT29) cell line; conditions: HT29, irradiation of 25 J/cm^2 (US2003/6,569,846); read-out: dose causing 50% death rate; cited from earlier work
[10] = reference, in ethanol [38]; cited from earlier work

## Clc1cccc(Cl)c1-c1c2nc(c(-c3c(Cl)cccc3Cl)c3ccc([nH]3)c(-c3c(Cl)cccc3Cl)c3nc(c(-c4c(Cl)cccc4Cl)c4ccc1[nH]4)CC3)CC2 [Cl2PhB, 5,10,15,20-tetrakis(2,6-dichlorophenyl)bacteriochlorin]
[1]
  fluorescence quantum yield of the reference: 0.012

## Oc1cccc(-c2c3nc(c(-c4cccc(O)c4)c4ccc([nH]4)c(-c4cccc(O)c4)c4nc(c(-c5cccc(O)c5)c5ccc2[nH]5)CC4)C=C3)c1 [Foscan®, 5,10,15,20-tetrakis(3-hydroxyphenyl)chlorin]
[2]; PBS:methanol, literature [46] normalized for a laser power of 100 mW
  t1/2 (half-life): 8,582 sec

## CCCCCCCNS(=O)(=O)c1ccc(Cl)c(-c2c3nc(c(-c4c(Cl)ccc(S(=O)(=O)NCCCCCCC)c4Cl)c4ccc([nH]4)c(-c4c(Cl)ccc(S(=O)(=O)NCCCCCCC)c4Cl)c4nc(c(-c5c(Cl)ccc(S(=O)(=O)NCCCCCCC)c5Cl)c5ccc2[nH]5)CC4)CC3)c1Cl [Luzitin-Cl2Hep, 5,10,15,20-tetrakis(2,6-dichloro-3-N-heptylsulfamoylphenyl)bacteriochlorin]
[3]; methanol
  t1/2 (photobleaching half-life): 164,105 sec
[4]
  τT (air) triplet lifetime: 295 nsec
[5]
  ΦF (fluorescence quantum yield): 0.0082
[6]
  τΔ (singlet oxygen lifetime): 14.3 μsec
[6]; phenalenone as reference
  ΦΔ (singlet oxygen quantum yield): 0.63
[7]
  εmax: 75,000 M^−1 cm^−1
  λmax: 746 nm
[8]
  log KOW (n-octanol:water partition coefficient): >4

## O=S(=O)(O)c1ccc(F)c(-c2c3nc(c(-c4cc(S(=O)(=O)O)ccc4F)c4ccc([nH]4)c(-c4cc(S(=O)(=O)O)ccc4F)c4nc(c(-c5cc(S(=O)(=O)O)ccc5F)c5ccc2[nH]5)CC4)CC3)c1 [Luzitin-F, 5,10,15,20-tetrakis(2-fluoro-5-sulfonylphenyl)bacteriochlorin]
[3]; PBS
  t1/2 (photobleaching half-life): 58 s

## CN(C)S(=O)(=O)c1ccc(F)c(-c2c3nc(c(-c4cc(S(=O)(=O)N(C)C)ccc4F)c4ccc([nH]4)c(-c4cc(S(=O)(=O)N(C)C)ccc4F)c4nc(c(-c5cc(S(=O)(=O)N(C)C)ccc5F)c5ccc2[nH]5)CC4)CC3)c1 [Luzitin-FMet2, 5,10,15,20-tetrakis(2-fluoro-5-N,N-dimethysulfamoylphenyl)bacteriochlorin]
[3]; methanol
  t1/2 (photobleaching half-life): 4,352 sec
[5]
  ΦF (fluorescence quantum yield): 0.0585
[7]
  λmax: 742.5 nm
[7]; corrected for the chlorin content
  εmax: 78,000^d) M^−1 cm^−1
[8]
  log KOW (n-octanol:water partition coefficient): >4

## CC[C@H]1c2cc3[n-]c4c(c3C)C(=O)[C@H](C(=O)OC)c4c3nc(cc4[n-]c(cc(n2)[C@@H]1C)c(C(C)=O)c4C)[C@@H](C)[C@@H]3CCC(=O)O.[Pd+2] [Tookad®]
[9]
  IC50: 48 µM
[2]; buffer
  t1/2 (half-life): 1.56 s

## O=C1C=Cc2cccc3cccc1c23 [phenalenone]
[10]
  ΦΔ (singlet oxygen quantum yield): 0.95
